Test results from US12685312B2, “Sulfonamide apyrase inhibitors” (Texas Crop Science, Inc., priority 2022, dated 2026).

Tests used:
apyrase = test: Screen for apyrase inhibitors (Method 1, in vitro phosphate-release absorbance assay); assay type: biochemical; settings: inhibitor conc at 1 mM stock, 1 hr room temperature, absorbance 630 nm; rounded average of two assay results
Summary of the method: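 Phosphate-release colorimetric assay (Windsor method) in 60 mM Hepes, 3 mM MgCl2, 3 mM CaCl2, 3 mM ATP, pH 6.5, with compound or DMSO control added. Released phosphate developed with ammonium molybdate and ascorbic acid/TCA, then stopped with citrate/acetic acid.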

[1] = system: plant pathogenic fungi (Zymoseptoria tritici strains, Microdochium nivale); test: In vitro combination assay (Method 2), overall comparison with Roux Compound 13; assay type: cell-based; settings: azoxystrobin, fluxapyroxad, desthio prothioconazole; three fungal strains
Method: (§1) Method 2: In Vitro Assessment of Combination Activity
(§2) Selected compounds were assessed in combination with fungicides against a range of commercially important plant pathogenic fungi.
(§3) The test was conducted as follows. A fungicide was applied to a fungal plant pathogen at a rate slightly below that at which it gave any control, in combination with a suitable dose of the test compound. The test compound was recorded as active if control of the pathogen was observed.
(§4) In more detail, the test was conducted as follows. For each combination of fungicide, pathogen and test compound, the following wells were used. Well 1 contained a fungal pathogen growing on agar, and a fungicide at a rate just below that at which it gave any control of the pathogen. Well 2 was the same as Well 1, except that the test compound was also added at Rate 1. Well 3 was the same as Well 2, except that the test compound was added at Rate 2, where Rate 2 was higher than Rate 1. Finally, as a benchmark, Well 4 was the same as Well 1, except that it contained the fungicide at a higher rate, at which it gave partial control of the pathogen. Each of the Wells 1 to 4 were run in duplicate, giving a total of 8 wells for each combination of fungicide, pathogen and test compound. For each well, after a suitable period of incubation, a visual assessment of the % control of the pathogen by the fungicide was made.
(§5) The following fungicides were used in this assay: azoxystrobin, fluxapyroxad, and desthio prothioconazole. The following fungal pathogens were used in this assay: First, a strain of Zymoseptoria tritici with a reduced susceptibility to strobilurin fungicides; second a strain of Zymoseptoria tritici with a reduced susceptibility to SDHI fungicides (i.e., those that inhibit succinate dehydrogenase); and third, Microdochium nivale.

[2] = system: Asian Soya Rust (Phakopsora pachyrhizi) on soybean; test: Greenhouse crop test (Method 3), Asian Soya Rust on soybean; assay type: in vivo; settings: Proline 0.15 L/ha
Method: (§6) Method 3: Greenhouse Crop Tests
(§7) In this method, exemplary compounds were evaluated for their ability to control Zymoseptoria tritici on wheat, Botrytis cinerea on tomatoes, Asian Soya Rust (Phakopsora pachyrhizi) on soybean, and Brown Rust (Puccinia recondita) on wheat, in a controlled greenhouse environment in combination with one of four fungicides, Amistar, Imtrex, Proline or Balaya. In these studies, soybean cultivar Siverka, tomato (Money maker) and wheat plants (JB Diego) were used. […] Each plant was evaluated once the disease symptoms were fully expressed between seven to twenty days (depending on the pathogen) for % control of the disease. […] Also, each commercial fungicide was tested on its own as a part of each treatment, this being benchmark against which the experimental compounds were evaluated. […]

[3] = system: Zymoseptoria tritici on wheat; test: Greenhouse crop test (Method 3), Zymoseptoria tritici on wheat; assay type: in vivo; settings: for enhancement of Imtrex over Imtrex alone: Imtrex 0.02 L/ha
Method: as §6
In this method, exemplary compounds were evaluated for their ability to control Zymoseptoria tritici on wheat, Botrytis cinerea on tomatoes, Asian Soya Rust (Phakopsora pachyrhizi) on soybean, and Brown Rust (Puccinia recondita) on wheat, in a controlled greenhouse environment in combination with one of four fungicides, Amistar, Imtrex, Proline or Balaya. In these studies, soybean cultivar Siverka, tomato (Money maker) and wheat plants (JB Diego) were used. Seeds were sown in 9 cm diameter pots to a depth of 1 to 2 cm using Petersfield potting compost (75% medium grade peat, 12% screened sterilized loam, 3% medium grade vermiculite, 10% grit (5 mm screened, lime free), 1.5 kg PG mix per m3, lime to pH5.5-6.0 and wetting agent (Vitax Ultrawet 200 ml per m3) and germinated/grown at 23 C under a 16 h day/8 h night light regime. Plants were treated two to three weeks after sowing when they were at the BBCH 11 growth stage (first pair of true leaves (unifoliate) unfolded. A track sprayer was used to treat the plants with the mixture of commercial fungicide and test compound using a water volume of 200 L/ha. Plants were inoculated with the appropriate fungi (pathogen) 24 hours after treatment. Fungal pathogens used were Botrytis cinerea (Grey mold on tomato plants), Zymoseptoria tritici (Septoria leaf blotch on wheat plants), Puccinia triticina (Brown rust on wheat plants) and Phakopsora pachyrhizi (Asian soy rust on soybean plants). Four replicates were used for each combination of fungicide, pathogen and test compound. Each plant was evaluated once the disease symptoms were fully expressed between seven to twenty days (depending on the pathogen) for % control of the disease. Appropriate controls were used for all experiments, including an ‘inoculation check’ wherein plants were inoculated with their specific pathogen to assess disease levels. Also, each commercial fungicide was tested on its own as a part of each treatment, this being benchmark against which the experimental compounds were evaluated. […] That is, the present compounds, although not fungicidal by themselves, enhance the activity of fungicides, thus the enhancer compounds work synergistically in combination with fungicides to control disease.
In these studies the fungicide was applied at the following rates

[4] = system: Botrytis cinerea on tomatoes; test: Greenhouse crop test (Method 3), Botrytis cinerea on tomatoes; assay type: in vivo; settings: Botrytis cinerea on tomato, Imtrex 0.005 L/ha
Method: as §6
In this method, exemplary compounds were evaluated for their ability to control Zymoseptoria tritici on wheat, Botrytis cinerea on tomatoes, Asian Soya Rust (Phakopsora pachyrhizi) on soybean, and Brown Rust (Puccinia recondita) on wheat, in a controlled greenhouse environment in combination with one of four fungicides, Amistar, Imtrex, Proline or Balaya. In these studies, soybean cultivar Siverka, tomato (Money maker) and wheat plants (JB Diego) were used. Seeds were sown in 9 cm diameter pots to a depth of 1 to 2 cm using Petersfield potting compost (75% medium grade peat, 12% screened sterilized loam, 3% medium grade vermiculite, 10% grit (5 mm screened, lime free), 1.5 kg PG mix per m3, lime to pH5.5-6.0 and wetting agent (Vitax Ultrawet 200 ml per m3) and germinated/grown at 23 C under a 16 h day/8 h night light regime. Plants were treated two to three weeks after sowing when they were at the BBCH 11 growth stage (first pair of true leaves (unifoliate) unfolded. A track sprayer was used to treat the plants with the mixture of commercial fungicide and test compound using a water volume of 200 L/ha. Plants were inoculated with the appropriate fungi (pathogen) 24 hours after treatment. Fungal pathogens used were Botrytis cinerea (Grey mold on tomato plants), Zymoseptoria tritici (Septoria leaf blotch on wheat plants), Puccinia triticina (Brown rust on wheat plants) and Phakopsora pachyrhizi (Asian soy rust on soybean plants). Four replicates were used for each combination of fungicide, pathogen and test compound. Each plant was evaluated once the disease symptoms were fully expressed between seven to twenty days (depending on the pathogen) for % control of the disease. Appropriate controls were used for all experiments, including an ‘inoculation check’ wherein plants were inoculated with their specific pathogen to assess disease levels. Also, each commercial fungicide was tested on its own as a part of each treatment, this being benchmark against which the experimental compounds were evaluated. […]

Microdochium nivale = test: In vitro assessment of combination activity with fungicides (Method 2); assay type: cell-based; settings: fungicide at a rate just below that giving any control; visual % control;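 further: scored as inactive active or highly active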
Method: as §1, §2, §3, §4, §5

[5] = system: Zymoseptoria tritici with a reduced susceptibility to SDHI fungicides; test: as above; assay type: cell-based; settings: fungicide at a rate just below that giving any control; visual % control;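 further: scored as inactive active or highly active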
Method: as §1, §2, §3, §4, §5

[6] = system: Zymoseptoria tritici with a reduced susceptibility to strobilurin fungicides; test: as above; assay type: cell-based; settings: fungicide at a rate just below that giving any control; visual % control;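 further: scored as inactive active or highly active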
Method: as §1, §2, §3, §4, §5

[7] = system: Brown Rust (Puccinia recondita) on wheat; test: Greenhouse crop test (Method 3), Brown Rust on wheat; assay type: in vivo; settings: Imtrex 0.45 L/ha
Method: as §6, §7

| % Inhibition of Apyrase (apyrase) | Compound | enhancer activity in the combination assay compared with Roux Compound 13 [1] | further results |
| --- | --- | --- | --- |
| 79% | O=C1CSc2ccc(C(=O)Nc3cccc(S(=O)(=O)Nc4ccc(Br)cc4)c3)cc2N1 [I-198, N-(3-(N-(4-bromophenyl)sulfamoyl)phenyl)-3-oxo-3,4-dihydro-2H-benzo[b][1,4]thiazine-6-carboxamide] | superior enhancer activity than Roux Compound 13 | enhancement of the activity of Proline [2]: over 90%; enhancement of Imtrex over Imtrex alone [3]: about 30% |
| 71% | O=C(Nc1ccc2c(c1)OCO2)c1ccccc1NS(=O)(=O)c1cccc(C(F)(F)F)c1 [I-213, N-(benzo[d][1,3]dioxol-5-yl)-2-((3-(trifluoromethyl)phenyl)sulfonamido) benzamide] | superior enhancer activity than Roux Compound 13 | enhancement in combination with Imtrex over Imtrex alone [4]: about 30% |
| 71% | O=C(Nc1ccc(Br)cc1)c1cccc(S(=O)(=O)Nc2ccc(F)cc2)c1 [I-222, N-(4-bromophenyl)-3-(N-(4-fluorophenyl)sulfamoyl)benzamide] | superior enhancer activity than Roux Compound 13 | enhancement of the activity of Proline [2]: greater than 60% |
| 66% | O=C(Nc1cccc(NS(=O)(=O)c2ccc(Br)cc2Cl)c1)c1ccco1 [I-234, N-(3-((4-bromo-2-chlorophenyl)sulfonamido)phenyl)furan-2-carboxamide] | superior enhancer activity than Roux Compound 13 | enhancement of activity of desthio prothioconazole (Microdochium nivale): enhancing fungicidal activity; enhancement of activity of fluxapyroxad (Microdochium nivale): enhancing fungicidal activity; enhancement of activity of desthio prothioconazole [5]: enhancing fungicidal activity; enhancement of activity of fluxapyroxad [5]: enhancing fungicidal activity; enhancement of activity of desthio prothioconazole [6]: enhancing fungicidal activity |
| 30% | Cc1ccc(C(=O)Nc2ccccc2S(=O)(=O)Nc2ccccc2)cc1F [I-236, 3-fluoro-4-methyl-N-(2-(N-phenylsulfamoyl)phenyl)benzamide] | superior enhancer activity than Roux Compound 13 | enhancement in combination with Imtrex over Imtrex alone [4]: about 30% |
| 73% | O=C(Nc1cccc(-c2ccn[nH]2)c1)c1cccc(S(=O)(=O)Nc2ccc(Br)cc2)c1 [I-239, N-(3-(1H-pyrazol-5-yl)phenyl)-3-(N-(4-bromophenyl)sulfamoyl)benzamide] | superior enhancer activity than Roux Compound 13 | enhancement of Imtrex over Imtrex alone [3]: about 30% |
| 65% | Cc1ccc(NS(=O)(=O)c2ccc(C(=O)N3CCc4ccccc43)cc2)cc1 [I-385, 4-(indoline-1-carbonyl)-N-(p-tolyl)benzenesulfonamide] |  | enhancement of Imtrex over Imtrex alone [3]: greater than 40% |
| 65% | NS(=O)(=O)c1cccc(NC(=O)c2ccc(S(=O)(=O)Nc3ccc(Cl)cc3)cc2)c1 [I-387, 4-(N-(4-chlorophenyl)sulfamoyl)-N-(3-sulfamoylphenyl)benzamide] |  | enhancement in combination with Imtrex over Imtrex alone [4]: about 30% |
| 63% | O=C(Nc1ccc2c(c1)OCO2)c1ccc(S(=O)(=O)Nc2ccccc2Cl)cc1 [I-388, N-(benzo[d][1,3]dioxol-5-yl)-4-(N-(2-chlorophenyl)sulfamoyl)benzamide] |  | enhancement of Balaya ([3]; Balaya 0.0015 L/ha): greater than 45% |

| Compound | % Inhibition of Apyrase (apyrase) | enhancer activity in the combination assay compared with Roux Compound 13 [1] | further results |
| --- | --- | --- | --- |
| Cc1ccc(NC(=O)c2cccc(S(=O)(=O)Nc3cccc(Cl)c3)c2)nc1 [I-595, 3-(N-(3-chlorophenyl)sulfamoyl)-N-(5-methylpyridin-2-yl)benzamide] | 36% |  | additional Brown Rust control benefit in combination with Imtrex over Imtrex alone [7]: greater than 40% |
| O=C(Nc1ccccc1S(=O)(=O)N1CCCC1)c1cccc(C(F)(F)F)c1 [I-826, N-(2-(pyrrolidin-1-ylsulfonyl)phenyl)-3-(trifluoromethyl)benzamide] | 40% |  | additional Brown Rust control benefit in combination with Imtrex over Imtrex alone [7]: greater than 50% |
